Data published in patent US20150094264A1, “USE OF OBESTATIN FOR MUSCLE REGENERATION” (UNIVERSIDADE DE SANTIAGO DE COMPOSTELA, priority 2012, published 2015).

Legend:
[1] = test system: damaged tibialis anterior of mouse; assay: Local administration in damaged tibialis anterior of mouse: myogenic markers, immunoblot; assay type: in vivo, Swiss mice; details: 300 nmol/kg weight local, 24 h intervals
Procedure: FIG. 8. Effect of the exogenous administration of obestatin in the damaged tibialis anterior of mouse (animal model) on the myogenic markers PAX-7 (A), MyoD (B), myogenin (C) and eMHC (D). Effect of the local exogenous administration of obestatin (300 nmol/kg/24 h) on early and later markers of myogenesis in damaged skeletal muscle tissue (tibialis anterior) in mice. The protein levels are expressed as % of the control obtained from the group of animals with administration of PBS (n=10 per group; mean±standard error; *, #, p<0.005).
The tissue or cell samples were directly lysed in RIPA buffer [Tris-HCl (pH 7.2), 50 mM; NaCl, 150 mM; EDTA, 1 mM; NP-40, 1% (v/v); Sodium deoxycholate, 0.25% (w/v); protease inhibitors (Sigma); phosphatise inhibitors (Sigma)]. The lysates were clarified by centrifugation (14,000×g during 15 min at 4° C.) and the protein concentration was quantified using QuantiPro™ BCA assay kit (Sigma). For immunoblot, equal amounts of protein were loaded which were fractionated in SOS-PAGE gels and transferred to nitrocellulose membranes. The immunoreactive bands were detected by chemiluminescence (Pierce ECL Western Blotting Substrate; Thermo Scientific, Ill., USA).
(§1) The mice (30 g; n=50) were maintained in 12 h light-darkness cycled with free access to standard diet and water. To induce the muscle damage, the tibialis anterior muscle (TA) was extracted under anaesthesia and subjected to three cycles of damage due to cold contact applying along the length of the muscle a metal bar cooled in liquid nitrogen. The damaged muscles were treated locally with obestatin injection (300 nmol/kg weight) or the corresponding vehicle (PBS; control) during the times indicated in 24 h intervals. The animals were assigned to one of the five experimental groups (n=10/group): 1) control group (saline); 2) obestatin group 48 h (obestatin 300 nmol/kg weight/24 h); 3) obestatin group 96 h (obestatin 300 nmol/kg weight/24 h); 4) obestatin group 168 h (obestatin 300 nmol/kg weight/24 h); and, obestatin group 240 h (obestatin 300 nmol/kg weight/24 h). After the indicated times, the mice were sacrificed by cervical dislocation under anaesthetic treatment and the tissues were extracted for immunoblot and immunohistochemical analyses.
The estimate of the therapeutic potential of obestatin as muscle regenerator agent was assessed in Swiss mice wherein muscle damage was induced in the tibialis anterior and obestatin (300 nmol/kg weight) or the corresponding vehicle (PBS) was later locally administered. The muscles were extracted and analysed by immunoblot 48, 96, 168 and 240 h after the treatment (n=5 per study time).

[2] = test system: damaged tibialis anterior of mouse; assay: Creatine kinase levels in serum of mice with damaged tibialis anterior; assay type: in vivo, Swiss mice; details: 300 nmol/kg weight local; 96 h
Procedure: FIG. 12. Analysis of the creatine kinase levels in serum of mice wherein damage was induced in the tibialis anterior muscle and they were treated locally with obestatin or vehicle (PBS) during 96 h. The creatine kinase levels are expressed as IU/L (International units/litre for the three study groups: control without damage, damage control (PBS) and treatment with obestatin (n=10 per group; mean±standard error; *, #, p<0.005).
as §1, with “After the indicated times, the mice were sacrificed by cervical dislocation under anaesthetic treatment and the tissues were extracted for immunoblot and immunohistochemical analyses.” left out

[3] = test system: damaged tibialis anterior of mouse; assay: Immunofluorescence analysis of eMHC expression in damaged tibialis anterior of mouse; assay type: in vivo, Swiss mice; details: 300 nmol/kg weight; 96 h
Procedure: FIG. 11. Immufluorescence analysis of the effect of the exogenous administration of obestatin (96 h) on eMHC expression in the damaged tibialis anterior of mouse (animal model). Representative images of eMHC expression by immunofluorescence of sections of the tibialis anterior treated with obestatin (300 nmol/kg/24 h) or PBS (control) 96 h after inducing the damage. The upper panels correspond to staining with anti-eMHC antibody and the lower panels to staining with DAPI.
For the tissue immunofluorescence analysis, frozen sections were obtained which were fixed using a buffered solution of PBS-paraformaldehyde during 15 min, washed, permeabilized and blocked with PBT during 30 min, and later incubated with the corresponding primary antibody (anti-eMHC, anti-laminin antibody) diluted in PBT (1:50) during 12 h at 4° C. After three washes with PBS, the tissue sections were incubated with secondary antibody in PBT (1:1000) during 45 min at 37° C. […] The digital images of the cell culture were acquired with a Leica TCS-SP2 confocal microscope.
The mice (30 g; n=50) were maintained in 12 h light-darkness cycled with free access to standard diet and water. To induce the muscle damage, the tibialis anterior muscle (TA) was extracted under anaesthesia and subjected to three cycles of damage due to cold contact applying along the length of the muscle a metal bar cooled in liquid nitrogen. […]

L6E9 myoblasts = assay: Mitogenic effect (number of cells) in L6E9 myoblasts in growth medium; assay type: cell-based, rat
Procedure: FIG. 2. Mitogenic effect of obestatin in L6E9 myoblasts. Mitogenic effect of different doses of obestatin (0.01-100 nM) in L6E9 myoblasts after 48 hours of stimulation in the presence of growth medium [GM: DMEN+10% FBS]. Co: initial number of cells. Control: number of cells after 48 hours in GM. GM+obestatin: number of cells after 48 hours of stimulation with obestatin in GM. The data are expressed as mean±standard error of 4 independent experiments (*, p<0.05).
The studies were performed based on the use of L6E9 rat myoblasts which were maintained in growth medium (GM) formed by DMEM (Dulbecco's Modified Eagle Medium) supplemented with 10% fetal bovine serum (FBS), 100 U/mL penicillin, and 100 U/mL streptomycin. For the differentiation, the cells were cultured at 80-100% of confluence in GM and it was replaced for differentiation medium (DM) formed by DMEM supplemented with 2% FBS, 100 U/mL penicillin, and 100 U/mL streptomycin during 6 days.
Dose-dependent studies performed on myoblasts with different obestatin concentrations (0.01-100 nM) in GM (proliferative conditions) show a maximum increase in the number of cells at 48 hours post-stimulation at a concentration of 5.0 nM obestatin (˜2.2-increased in relation to the control; FIG. 2).

obestatin
expression times of each of the factors analysed (Pax-7, MyoD, myogenin, eMHC) [1]: acceleration
MyoD levels in treated muscles in relation to control muscles ([1]; 48, 96, 168 and 240 h): significantly higher
Pax-7 levels in treated muscles in relation to control muscles ([1]; 48, 96, 168 and 240 h): significantly higher
eMHC levels in treated muscles in relation to control muscles ([1]; 48, 96, 168 and 240 h): significantly higher
myogenin levels in treated muscles in relation to control muscles ([1]; 48, 96, 168 and 240 h): significantly higher
creatine kinase serum levels in relation to muscle damage controls (PBS) [2]: significant reduction
eMHC expression by immunofluorescence in relation to controls [3]: significantly increases
maximum increase in the number of cells in relation to the control (L6E9 myoblasts; 5.0 nM obestatin, 48 hours post-stimulation, GM (DMEM+10% FBS)): ~2.2
obestatin concentration of maximum increase in the number of cells (L6E9 myoblasts; range 0.01-100 nM, 48 hours, GM): 5.0 nM
